Source: ChEMBL document CHEMBL1130465, “Peptidic prodrugs of novel aminomethyl-THF 1-methylcarbapenems” (1997)
Values after ≈ are worked out from the molar mass of the structure shown.

How the values were obtained:
Format in all cases: functional
[1] = system: Acinetobacter calcoaceticus; experiment: In vitro antimicrobial activity against Acinetobacter calcoaceticus GC 756 strain; details: Acinetobacter calcoaceticus; read-out: MIC
[2] = system: Citrobacter freundii; experiment: In vitro antimicrobial activity against Citrobacter freundii GC 2211 strain; details: Citrobacter freundii; read-out: MIC
[3] = system: Enterococcus faecium; experiment: In vitro antimicrobial activity against Enterococcus faecium GC 1182 strain; details: Enterococcus faecium; read-out: MIC
[4] = system: Enterococcus faecalis; experiment: In vitro antimicrobial activity against Enterococcus faecalis GC 842 strain; details: Enterococcus faecalis; read-out: MIC
[5] = system: Escherichia coli; experiment: In vitro antimicrobial activity against Escherichia coli ATCC 25922 strain
[6] = system: Escherichia coli; experiment: In vitro antimicrobial activity against Escherichia coli GC 1792 strain; details: Escherichia coli; read-out: MIC
[7] = system: Escherichia coli; experiment: In vitro antimicrobial activity against Escherichia coli GC 2205 strain
[8] = system: Enterobacter cloacae; experiment: In vitro antimicrobial activity against Enterobacter cloacae GC 2209 strain
[9] = system: Mus musculus; experiment: Tested for oral activity against Escherichia coli #311 infection in mice after single subcutaneous dose(SSC)
[10] = species: Mus musculus; experiment: animal or person; details: Mus musculus, po; read-out: ED50
Description: Tested for oral activity against Escherichia coli #311 infection in mice after single oral dose(SOD)

[11] = system: Morganella morganii; experiment: In vitro antimicrobial activity against Morganella morganii GC 2213 strain; details: Morganella morganii; read-out: MIC
[12] = system: Pseudomonas aeruginosa; experiment: In vitro antimicrobial activity against Pseudomonas aeruginosa ATCC 27853 strain; details: Pseudomonas aeruginosa, ATCC 27853; read-out: MIC
[13] = system: Pseudomonas aeruginosa; experiment: In vitro antimicrobial activity against Pseudomonas aeruginosa GC 1544 strain; details: Pseudomonas aeruginosa; read-out: MIC
[14] = system: Staphylococcus aureus; experiment: In vitro antimicrobial activity against Staphylococcus aureus GC 2220 strain; details: Staphylococcus aureus; read-out: MIC
[15] = system: Staphylococcus aureus; experiment: In vitro antimicrobial activity against Staphylococcus aureus ATCC 29213 strain
[16] = system: Stenotrophomonas maltophilia; experiment: In vitro antimicrobial activity against Xanthomonas maltophilia GC 562 strain
[17] = system: Mus musculus; experiment: Tested for oral activity against Escherichia coli #311 infection in mice after single subcutaneous dose(SSC); 0.5-1
[18] = system: Mus musculus; experiment: Tested for oral activity against Staphylococcus aureus smith infection in mice after single subcutaneous dose(SSC); 0.12-0.25
[19] = Ratio of ED50 of single oral dose to ED50 of single subcutaneous dose against Staphylococcus aureus smith infection in mice
[20] = system: Mus musculus; experiment: Tested for oral activity against Staphylococcus aureus smith infection in mice after single oral dose(SOD); 4-8

Row | MIC [1] | MIC [2] | MIC [3] | MIC [4] | MIC [5] | MIC [6] | MIC [7] | MIC [8] | MIC [11] | MIC [12] | MIC [13] | MIC [14] | MIC [15] | MIC [16] | Compound | ED50 [9] | ED50 [10] | ED50 [17] | ED50 [18] | Ratio [19] | ED50 [20]
1 | 32 µg/mL (≈ 65.4 µM) | 8 µg/mL (≈ 16.3 µM) | 128 µg/mL (≈ 261 µM) | 1 µg/mL (≈ 2.04 µM) | 0.5 µg/mL (≈ 1.02 µM) | 0.5 µg/mL (≈ 1.02 µM) | 0.06 µg/mL (≈ 0.123 µM) | 4 µg/mL (≈ 8.17 µM) | 2 µg/mL (≈ 4.09 µM) | 64 µg/mL (≈ 131 µM) | 128 µg/mL (≈ 261 µM) | 8 µg/mL (≈ 16.3 µM) | 0.25 µg/mL (≈ 0.511 µM) | > 128 µg/mL | C[C@H]1C(S[C@@H]2CCO[C@@H]2CNC(=O)[C@@H](N)Cc2ccccc2)=C(C(=O)O)N2C(=O)[C@H]([C@@H](C)O)C12 (some centres undefined) | 13 mg/kg | 24 mg/kg |  |  |  | 
2 | 2 µg/mL (≈ 5.84 µM) | 0.25 µg/mL (≈ 0.73 µM) | 128 µg/mL (≈ 374 µM) | 2 µg/mL (≈ 5.84 µM) | < 0.06 µg/mL | < 0.06 µg/mL | 0.12 µg/mL (≈ 0.35 µM) | < 0.06 µg/mL | 2 µg/mL (≈ 5.84 µM) | 16 µg/mL (≈ 46.7 µM) | 32 µg/mL (≈ 93.5 µM) | 4 µg/mL (≈ 11.7 µM) | < 0.06 µg/mL | > 128 µg/mL | C[C@H]1C(S[C@H]2COC[C@H]2CN)=C(C(=O)O)N2C(=O)[C@H]([C@@H](C)O)C12 (some centres undefined) |  |  | 0.5 mg/kg | 0.12 mg/kg | 33 | 4 mg/kg
